Target: FKBP12 (Homo sapiens, UniProt P62942)
Assay: Western blot of FLAG-FKBP12 degradation in HEK293T cells expressing HA-FBXO22
Type: cell-based
Set-up: expressed in transfected cells; host or cells: HEK293T
Procedure: The bar graph represents quantification of the FLAG-FKBP12/HSP90 protein content. Data are presented as the mean values±s.e.m. […] HEK293T cells expressing HA-FBXO22 were treated with 0.025-15 μM 22-SLF for 8 h. The graph represents quantification of the FLAG-FKBP12/HSP90 protein content. Data are presented as the mean values (n=2 biological independent samples). […] The bar graph represents quantification of the FLAG-FKBP12/HSP90 protein content. KO, knockout; WT, wild type. Data are presented as the mean values (n=2 biological independent samples). […] The bar graph represents quantification of the FLAG-FKBP12/HSP90 protein content. Data are presented as the mean values±s.e.m. […] The result is representative of two independent experiments with similar results. WCL, whole-cell lysate; IP, immunoprecipitate.
FIGS. 3A-3H show FBXO22 C227 and C228 are involved in 22-SLF-mediated degradation of FKBP12. […] Among 5,650 quantified IA-DTB-modified peptides, four cysteines were identified on FBXO22 (C83, C117, C228, and C365). […] Data are presented as the mean values (n=2 biological independent samples for DMSO treatment; n=3 biological independent samples for 22-SLF Treatment). […] The bag graph represents quantification of the FLAG-FKBP12/HSP90 protein content. Data are presented as mean values (n=2 biological independent samples). […] The bar graph represents quantification of the FLAG-FKBP12/HSP90 protein content. Data are presented as the mean values (n=2 biological independent samples).
FIG. 11A-11B show the acrylamide variant of 22-SLF, 22a-SLF, induced the degradation of FKBP12. […] HEK293T cells expressing HA-FBXO22 were treated with 0.5, 1, or 2 μM of 22-SLF or 22a-SLF for 8 hours. The graph represents quantification of the FLAG-FKBP12/HSP90 protein content. Data are presented as mean values (n=2 biological independent samples).
Next, Western blot analysis was used to measure the degradation of FKBP12 induced by 22-SLF. To achieve this, FLAG-tagged FKBP12 and HA-tagged FBXO22 were stably overexpressed in HEK293T cells, followed by subjecting the cells to varying concentrations of 22-SLF. […] Moreover, 22-SLF's effect on FLAG-FKBP12 degradation was concentration-dependent (FIG. 2a). […] The rescue enabled by MLN4924 indicates the involvement of a Cullin-RING ligase (CRL) in the degradation process. This is consistent with FBXO22 belonging to SKP1-CUL1-F-box protein (SCF) ubiquitin ligase complexes, a subfamily of CRL. […] To provide a more comprehensive insight into 22-SLF-induced FKBP12 degradation, a dose-dependent degradation experiment using 11 concentrations of 22-SLF ranging from […] to 15 μM was conducted. This experiment enabled determination of two parameters, the Dmax value, which reached 89%, and the half-maximal degradation concentration (DC50) value, which measured at 0.5 μM (FIG. 2B). […] Collectively, this array of data supports the canonical mechanism of ligand-induced protein degradation. In this mechanism, 22-SLF orchestrates the recruitment of FBXO22 to FKBP12, culminating in the proteasomal degradation of FKBP12.
To identify the cysteine residue(s) in FBXO22 engaged with 22-SLF, HA-FBXO22-expressing HEK293T cells were treated with either DMSO or 22-SLF (2 μM, 2 hours). Using competitive cysteine-directed activity-based protein profiling (ABPP), a chemical proteomics for the measurement of target engagement, the degree of blockade of iodoacetamide-desthiobiotin (IA-DTB)-modified cysteines on FBXO22 was quantified. From a pool of 5,650 quantified IA-DTB-modified peptides, four cysteines on FBXO22 (C83, C117, C228, and C365) (FIG. 3a) were identified, with approximately 20% of FBXO22 C228 being blocked by 22-SLF treatment (FIG. 3b), indicating the potential interaction with this cysteine by 22-SLF. Consequently, C228 was mutated to alanine and HA-FBXO22 C228A-expressing HEK293T cells were generated (FIG. 3c). […]

Chain of FKBP12 (P62942 whole entry): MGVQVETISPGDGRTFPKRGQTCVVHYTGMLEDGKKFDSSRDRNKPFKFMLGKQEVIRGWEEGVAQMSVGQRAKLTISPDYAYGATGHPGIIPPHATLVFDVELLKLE

SMILES: CCC(C)(C)C(=O)C(=O)N1CCCC[C@H]1C(=O)O[C@H](CCc1ccc(OC)c(OC)c1)c1cccc(OCC(=O)NCCCOCCOCCOCCCN(C(=O)CCl)C(C(=O)NCc2ccccc2)c2nc3ccccc3s2)c1 (stereo partly shown) [22-SLF]
- DC50 (11 concentrations, 0.25 to 15 μM, 8 h, HEK293T expressing HA-FBXO22, read-out: half-maximal degradation concentration (DC50)): 500 nM
- Concentration dependence of FLAG-FKBP12 degradation (HEK293T cells expressing HA-FBXO22): concentration-dependent
- FKBP12 degradation with FBXO22 double mutant C227AC228A (HEK293T cells expressing the variant): completely blocked
- FKBP12 degradation with FBXO22 single mutants C227A and C228A (HEK293T cells expressing the variants): partially impeded
- Loss of FLAG-FKBP12 expression in cells lacking HA-FBXO22 (HEK293T cells without HA-FBXO22): no reduction was observed
- Dmax (HEK-293T, 11 concentrations, 0.25 to 15 μM, 8 h, HEK293T expressing HA-FBXO22): 89%
- Time to nearly complete FLAG-FKBP12 degradation (time course): ≤ 2 h
